Measured values published in patent US10358434B2, “2-(3-pyridinyl)-1H-benzimidazole derivative compound and medicament containing same” (NIHON MEDI-PHYSICS CO., LTD., priority 2014, dated 2019).

Assays:
[1] = tested on: human adrenal gland section expressing aldosterone-producing adenoma; test: In vitro autoradiography using human adrenal adenoma; format: binding; conditions: section of FIG. 17(b)
Summary of the method: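 Frozen 7-μm sections of human adrenal bearing aldosterone-producing adenoma were immersed 10 min in radioligand (5-33 kBq/mL) in PBS with 1% fatty-acid-free BSA, washed, then exposed to imaging plates for 16-20 h. Equal-area ROI PSL in adenoma (B2) versus normal cortex (B1) gave B2/B1, corrected for nuclide half-life, added activity and exposure time.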

[2] = In vivo kinetics experiment (radioactivity distribution); set-up: species or system Wistar male rat; conditions: rat i.v., mean ± SD
Summary of the method: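 Male Wistar rats (9 weeks) under isoflurane received approximately 1 to 3.7 MBq radiotracer in saline with 1 w/v % ascorbic acid by tail-vein injection. At 10, 30 and 60 min, rats were exsanguinated; blood, organs and remaining body weighed and counted, giving % ID/g and adrenal-to-tissue ratios.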

[3] = Plasma stability evaluation (TLC analysis); format: in vitro ADME; conditions: 37° C., 60 minutes, TLC analysis
Summary of the method: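 Radiolabelled compounds were incubated in heparin-treated pooled normal human plasma at 37° C for 60 minutes. After methanol deproteinization and centrifugation, stability was assessed by TLC under the conditions used for each compound's synthesis.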

CC(C)n1c(-c2cncc(Cn3ccnc3)c2)nc2ccc([123I])cc21 [[^123I] 606, 2-[5-{(1H-imidazol-1-yl)methyl}pyridin-3-yl]-6-[^123I]iodo-1-isopropyl-1H-benzo[d]imidazole]
B2/B1 accumulation ratio [1]: 0.87 | B2 (PSL value, aldosterone-producing adenoma) ([1]; site 71b): 1655 | B1 (PSL value, normal adrenal cortex) ([1]; site 72b): 1913 | Adrenal gland/blood ratio of radioactivity accumulation ([2]; 10 min after administration): 85.09 ± 27.52 | Adrenal gland/fat ratio of radioactivity accumulation ([2]; 10 min after administration): 100.88 ± 26.65 | Adrenal gland/kidney ratio of radioactivity accumulation ([2]; 10 min after administration): 10.11 ± 2.69 | Adrenal gland/liver ratio of radioactivity accumulation ([2]; 10 min after administration): 4.02 ± 1.20 | Adrenal gland/muscle ratio of radioactivity accumulation ([2]; 10 min after administration): 57.42 ± 9.23 | Adrenal gland/small intestine ratio of radioactivity accumulation ([2]; 10 min after administration): 9.70 ± 3.04 | Radioactivity distribution Adrenal gland ([2]; 10 min after administration): 13.01 ± 3.75 % ID/g | Radioactivity distribution Bladder (including urine) ([2]; 10 min after administration): 0.27 ± 0.01 % ID/g | Radioactivity distribution Blood ([2]; 10 min after administration): 0.15 ± 0.01 % ID/g | Radioactivity distribution Fat ([2]; 10 min after administration): 0.13 ± 0.01 % ID/g | Radioactivity distribution Femur ([2]; 10 min after administration): 0.59 ± 0.02 % ID/g | Radioactivity distribution Heart ([2]; 10 min after administration): 0.56 ± 0.04 % ID/g | Radioactivity distribution Kidney ([2]; 10 min after administration): 1.29 ± 0.11 % ID/g | Radioactivity distribution Large intestine ([2]; 10 min after administration): 0.17 ± 0.00 % ID/g | Radioactivity distribution Liver ([2]; 10 min after administration): 3.24 ± 0.05 % ID/g | Radioactivity distribution Lung ([2]; 10 min after administration): 0.86 ± 0.07 % ID/g | Radioactivity distribution Muscle (lower limbs) ([2]; 10 min after administration): 0.22 ± 0.04 % ID/g | Radioactivity distribution Remaining whole body ([2]; 10 min after administration): 0.29 ± 0.02 % ID/g | Radioactivity distribution Small intestine ([2]; 10 min after administration): 1.35 ± 0.04 % ID/g | Radioactivity distribution Spleen ([2]; 10 min after administration): 4.55 ± 0.41 % ID/g | Radioactivity distribution Stomach ([2]; 10 min after administration): 0.75 ± 0.09 % ID/g | Radioactivity distribution Testis ([2]; 10 min after administration): 0.08 ± 0.00 % ID/g | Radioactivity distribution Whole brain ([2]; 10 min after administration): 0.03 ± 0.00 % ID/g | Adrenal gland/blood ratio of radioactivity accumulation ([2]; 30 min after administration): 151.28 ± 30.77 | Adrenal gland/fat ratio of radioactivity accumulation ([2]; 30 min after administration): 172.63 ± 42.67 | Adrenal gland/kidney ratio of radioactivity accumulation ([2]; 30 min after administration): 20.98 ± 3.60 | Adrenal gland/liver ratio of radioactivity accumulation ([2]; 30 min after administration): 8.21 ± 1.88 | Adrenal gland/muscle ratio of radioactivity accumulation ([2]; 30 min after administration): 130.86 ± 25.55 | Adrenal gland/small intestine ratio of radioactivity accumulation ([2]; 30 min after administration): 7.82 ± 2.11 | Radioactivity distribution Adrenal gland ([2]; 30 min after administration): 21.23 ± 4.43 % ID/g | Radioactivity distribution Bladder (including urine) ([2]; 30 min after administration): 1.17 ± 0.36 % ID/g | Radioactivity distribution Blood ([2]; 30 min after administration): 0.14 ± 0.00 % ID/g | Radioactivity distribution Fat ([2]; 30 min after administration): 0.12 ± 0.01 % ID/g | Radioactivity distribution Femur ([2]; 30 min after administration): 0.50 ± 0.01 % ID/g | Radioactivity distribution Heart ([2]; 30 min after administration): 0.44 ± 0.01 % ID/g | Radioactivity distribution Kidney ([2]; 30 min after administration): 1.01 ± 0.04 % ID/g | Radioactivity distribution Large intestine ([2]; 30 min after administration): 0.23 ± 0.01 % ID/g | Radioactivity distribution Liver ([2]; 30 min after administration): 2.59 ± 0.07 % ID/g | Radioactivity distribution Lung ([2]; 30 min after administration): 0.65 ± 0.03 % ID/g | Radioactivity distribution Muscle (lower limbs) ([2]; 30 min after administration): 0.16 ± 0.01 % ID/g | Radioactivity distribution Remaining whole body ([2]; 30 min after administration): 0.24 ± 0.01 % ID/g | Radioactivity distribution Small intestine ([2]; 30 min after administration): 2.75 ± 0.21 % ID/g | Radioactivity distribution Spleen ([2]; 30 min after administration): 3.80 ± 0.26 % ID/g | Radioactivity distribution Stomach ([2]; 30 min after administration): 1.66 ± 0.35 % ID/g | Radioactivity distribution Testis ([2]; 30 min after administration): 0.11 ± 0.01 % ID/g | Radioactivity distribution Whole brain ([2]; 30 min after administration): 0.03 ± 0.00 % ID/g | Adrenal gland/blood ratio of radioactivity accumulation ([2]; 60 min after administration): 161.94 ± 14.16 | Adrenal gland/fat ratio of radioactivity accumulation ([2]; 60 min after administration): 229.99 ± 79.47 | Adrenal gland/kidney ratio of radioactivity accumulation ([2]; 60 min after administration): 22.62 ± 2.40 | Adrenal gland/liver ratio of radioactivity accumulation ([2]; 60 min after administration): 8.81 ± 1.68 | Adrenal gland/muscle ratio of radioactivity accumulation ([2]; 60 min after administration): 168.08 ± 24.28 | Adrenal gland/small intestine ratio of radioactivity accumulation ([2]; 60 min after administration): 5.20 ± 0.46 | Radioactivity distribution Adrenal gland ([2]; 60 min after administration): 19.67 ± 3.42 % ID/g | Radioactivity distribution Bladder (including urine) ([2]; 60 min after administration): 2.06 ± 0.40 % ID/g | Radioactivity distribution Blood ([2]; 60 min after administration): 0.12 ± 0.01 % ID/g | Radioactivity distribution Fat ([2]; 60 min after administration): 0.09 ± 0.02 % ID/g | Radioactivity distribution Femur ([2]; 60 min after administration): 0.62 ± 0.04 % ID/g | Radioactivity distribution Heart ([2]; 60 min after administration): 0.40 ± 0.02 % ID/g | Radioactivity distribution Kidney ([2]; 60 min after administration): 0.87 ± 0.07 % ID/g | Radioactivity distribution Large intestine ([2]; 60 min after administration): 0.35 ± 0.06 % ID/g | Radioactivity distribution Liver ([2]; 60 min after administration): 2.24 ± 0.16 % ID/g | Radioactivity distribution Lung ([2]; 60 min after administration): 0.60 ± 0.03 % ID/g | Radioactivity distribution Muscle (lower limbs) ([2]; 60 min after administration): 0.12 ± 0.01 % ID/g | Radioactivity distribution Remaining whole body ([2]; 60 min after administration): 0.22 ± 0.01 % ID/g | Radioactivity distribution Small intestine ([2]; 60 min after administration): 3.77 ± 0.38 % ID/g | Radioactivity distribution Spleen ([2]; 60 min after administration): 3.05 ± 0.35 % ID/g | Radioactivity distribution Stomach ([2]; 60 min after administration): 1.90 ± 0.35 % ID/g | Radioactivity distribution Testis ([2]; 60 min after administration): 0.16 ± 0.03 % ID/g | Radioactivity distribution Whole brain ([2]; 60 min after administration): 0.03 ± 0.00 % ID/g | Radiochemical purity after incubation in human plasma [3]: 88%
